# Patent US10259782B2, “ROR gamma (RORγ) modulators” (LEAD PHARMA HOLDING B.V., priority 2015, dated 2019)
# Target: T1, RORγ (Homo sapiens, UniProt P51449)
# T1 construct: expressed in transfected cells; host or cells: 293FT cells (Invitrogen), expression vector pFN26A (Promega)
# T1 sequence (P51449 269-508 limits assumed): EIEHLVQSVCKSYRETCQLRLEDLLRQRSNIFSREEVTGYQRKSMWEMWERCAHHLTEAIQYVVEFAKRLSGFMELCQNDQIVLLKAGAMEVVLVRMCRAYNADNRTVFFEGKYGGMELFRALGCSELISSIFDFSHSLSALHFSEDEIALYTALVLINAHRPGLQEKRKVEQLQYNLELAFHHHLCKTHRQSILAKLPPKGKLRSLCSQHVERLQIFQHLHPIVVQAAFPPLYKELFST
# Assay: RORγ GAL4 reporter gene assay (luciferase readout, 293FT cells)
# Assay type: cell-based
# Settings: inhibition of RORγ (GAL4-RORγ-LBD) in transfected 293FT cells, luciferase signal, overnight incubation; read-out: mean pIC50 (converted)
# Method: RORγ GAL4 Reporter Gene Assay
# Example inhibitors 1-47 were tested for their ability to inhibit RORγ activity in a RORγ GAL4 reporter gene assay. The assay procedure and results are described below.
# RORγ GAL4 Reporter Gene Assay Description
# A GAL4 one-hybrid reporter system employing luciferase readout was established to determine inhibition of RORγ in 293FT cells. The RORγ ligand-binding domain (LBD) was fused to the yeast GAL4 DNA binding domain (DBD) and placed under the control of the human cytomegalovirus (CMV) immediate early promoter, using expression vector pFN26A (Promega) and standard recombinant DNA cloning methods. To serve as a control in the assay, a similar vector was generated in which the GAL4-DBD was fused to Herpes simplex virus protein 16 (VP16), a constitutive transcriptional activator.
# To monitor the inhibitory effect of compounds on RORγ, a transcriptional reporter construct was used. The pGL4.35 vector (Promega) contains nine copies of the GAL4 Upstream Activator Sequence (UAS). This sequence drives the transcription of the luciferase reporter gene luc2P in response to binding of a fusion protein containing the GAL4 DNA binding domain, as for example expressed by the GAL4-RORγ-LBD and GAL4-VP16 expression vectors described above. To allow a GAL4 fusion protein to drive the expression of the luciferase reporter, the pGL4.35 expression vector and the appropriate GAL4 fusion protein expression vector were bulk transfected in the 293FT cells using standard transfection techniques.
# The day after transfection, cells were plated into 96 well plates, test compound was added and the plates were incubated overnight. Subsequently, the firefly luciferase activity was quantified using luciferase detection reagent and luminescence readout.
# Detailed Assay Description
# 293FT cells (Invitrogen) were transfected with a GAL4 fusion protein expression vector (as described above) and the transcriptional reporter construct (pGL4.35, Promega). 60 μL of TransIT-293 transfection reagent (Mirus Bio) was added drop wise to 1500 μl Opti-MEM I Reduced Serum Medium (Invitrogen) and incubated at room temperature (RT) for 5 to 20 minutes. 1500 μL of this reagent mixture was added to 5 μg of GAL4 fusion protein expression vector and 5 μg of the transcriptional reporter construct, and incubated at RT for 20 minutes.
# To harvest 293FT cells from a T75 flask, first the culture medium was taken off the cells. Subsequently, the cells were washed with Phosphate Buffered Saline (PBS) (Lonza), after which the PBS was removed. To dissociate the cells, 1 ml of TrypLE Express (Invitrogen) was added to the flask, followed by incubation at RT until the cells visually started to detach. Cells were collected in 5 mL of assay medium (DMEM culture medium (Lonza), 10% dialyzed FBS (Invitrogen) and Pen/Strep (Lonza)) to achieve a single cell suspension. 10×10^6 cells were spun down and re-suspended in 10 mL of assay medium. Subsequently, the cell suspension was added to the transfection mix tube, and then transferred as a whole to a T75 flask (Greiner), followed by overnight (16-24 hours) incubation at 37° C. and 5% CO2.
# For compound screening, the cells were harvested (as described above) and counted. 13×10^6 cells were spun down, the supernatant was aspirated and the cells were re-suspended in 17.3 mL of assay medium obtaining a cell suspension of 0.75×10^6 cells/mL. 80 μL of cell suspension (60,000 cells) was plated per well into a white, flat bottom, tissue culture treated, 96 well screening plates (Greiner).
# Test compounds were diluted, starting from a 10 mM dimethylsulf oxide (DMSO) stock solution, to serial dilutions in DMSO at 500× the final test concentration. Subsequently, these solutions were diluted to 5× the final test concentration in two 10-fold-dilution steps in assay medium. The final DMSO concentration of the 5× test compound solution was 1%. […]
row,IC50,SMILES
1,≤ 1000 nM,"Cc1ccnn1-c1ccc(NC(=O)Cc2ccc(S(=O)(=O)CC3CC3)cc2)cc1 [Example 41, 2-(4-cyclopropylmethanesulfonylphenyl)-N-[4-(5-methyl-1H-pyrazol-1-yl)phenyl]acetamide]"
2,≤ 1000 nM,"O=C(Cc1ccc(S(=O)(=O)CC2CC2)cc1)Nc1ccc(-c2ncon2)cc1 [Example 47, 2-(4-cyclopropylmethanesulfonylphenyl)-N-[4-(1,2,4-oxadiazol-3-yl)phenyl]acetamide]"
3,≤ 1000 nM,"Cc1cnn(-c2ccc(NC(=O)Cc3ccc(S(=O)(=O)CC4CC4)cc3)cc2)c1 [Example 42, 2-(4-cyclopropylmethanesulfonylphenyl)-N-[4-(4-methyl-1H-pyrazol-1-yl)phenyl]acetamide]"
4,≤ 1000 nM,"Cc1cc(NC(=O)Cc2ccc(S(=O)(=O)NC3CC3)cc2)ncc1-c1ccccc1OC(F)(F)F [Example 35, 2-[4-(cyclopropylsulfamoyl)phenyl]-N-{4-methyl-5-[2-(trifluoromethoxy)phenyl]pyridin-2-yl}acetamide]"
5,≤ 100 nM,"O=C(Cc1ccc(S(=O)(=O)NC2CC2)cc1)Nc1ccc(-c2ccccc2OC(F)(F)F)c(Cl)c1 [Example 33, N-{3-chloro-4-[2-(trifluoromethoxy)phenyl]phenyl}-2-[4-(cyclopropylsulfamoyl)phenyl]acetamide]"
6,≤ 1000 nM,"O=C(Cc1ccc(S(=O)(=O)CC2CC2)cc1)Nc1ccc(-n2cncn2)cc1 [Example 46, 2-(4-cyclopropylmethanesulfonylphenyl)-N-[4-(1H-1,2,4-triazol-1-yl)phenyl]acetamide]"
7,≤ 100 nM,"Cc1cc(NC(=O)Cc2ccc(S(=O)(=O)CC3CC3)cc2)nc(C)c1-c1ccccc1OC(F)(F)F [Example 37, 2-(4-cyclopropylmethanesulfonylphenyl)-N-{4,6-dimethyl-5-[2-(trifluoromethoxy)phenyl]pyridin-2-yl}acetamide]"

# Second part, the compound before the results:
row,SMILES,IC50
1,"COc1cccc(Oc2cc(NC(=O)Cc3ccc(S(=O)(=O)CC4CC4)cc3)ccc2-n2cnc(C)c2)c1 [Example 3, 2-(4-cyclopropylmethanesulfonylphenyl)-N-[3-(3-methoxyphenoxy)-4-(4-methyl-1H-imidazol-1-yl)phenyl]acetamide]",≤ 100 nM
2,"Cc1nc(NC(=O)Cc2ccc(S(=O)(=O)CC3CC3)cc2)ccc1-c1ccccc1OC(F)(F)F [Example 32, 2-(4-cyclopropylmethanesulfonylphenyl)-N-{6-methyl-5-[2-(trifluoromethoxy)phenyl]pyridin-2-yl}acetamide]",≤ 100 nM
3,"O=C(Cc1ccc(S(=O)(=O)CC2CC2)cc1)Nc1ccc(-c2ccc(F)c(F)c2)c(Oc2cccc(Cl)c2)c1 [Example 5, N-[3-(3-chlorophenoxy)-4-(3,4-difluorophenyl)phenyl]-2-(4-cyclopropylmethanesulfonylphenyl)acetamide]",≤ 100 nM
4,"O=C(Cc1ccc(S(=O)(=O)CC2CC2)cc1)Nc1ccc(-c2ccc(F)cc2)c(Oc2cccc(F)c2)c1 [Example 12, 2-(4-cyclopropylmethanesulfonylphenyl)-N-[3-(3-fluorophenoxy)-4-(4-fluorophenyl)phenyl]acetamide]",≤ 100 nM
5,"Cc1cc(NC(=O)Cc2ccc(S(=O)(=O)CC3CC3)cc2)ccc1-c1ccccc1OC(F)(F)F [Example 29, 2-(4-cyclopropylmethanesulfonylphenyl)-N-{3-methyl-4-[2-(trifluoromethoxy)phenyl]phenyl}acetamide]",≤ 100 nM
6,"O=C(Cc1ccc(S(=O)(=O)NC2CC2)cc1)Nc1ccc(-c2cccc(F)c2)c(Oc2cccc(Cl)c2)c1 [Example 17, N-[3-(3-chlorophenoxy)-4-(3-fluorophenyl)phenyl]-2-[4-(cyclopropylsulfamoyl)phenyl]acetamide]",≤ 1000 nM
7,"O=C(Cc1ccc(S(=O)(=O)NC2CC2)cc1)Nc1ccc(-c2cccc(F)c2)c(Oc2cccc(C(F)(F)F)c2)c1 [Example 19, 2-[4-(cyclopropylsulfamoyl)phenyl]-N-[4-(3-fluorophenyl)-3-[3-(trifluoromethyl)phenoxy]phenyl]acetamide]",≤ 1000 nM
